Assay results: patent US10597388B2, “Pyridazinone herbicides” (FMC CORPORATION, priority 2014, dated 2020)

Tests used:
Experiment in all cases: Test D controlled growth environment herbicide test, pre- and postemergence
Format in all cases: in vivo
[1] = test system: bluegrass (annual bluegrass, Poa annua)
How it was run: (§1)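 Rating is visual, 0–100 scale (100 = complete control), made against untreated plants 14–21 d after treatment in controlled growth conditions. Postemergence sprays went onto 1- to 4-leaf plants in peat medium; preemergence sprays onto silt loam after sowing; formulation included a surfactant.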

[2] = test system: barley, winter (winter barley, Hordeum vulgare)
How it was run: as §1

[3] = test system: oilseed rape (Brassica napus)
How it was run: as §1

[4] = test system: mustard, wild (wild mustard, Sinapis arvensis)
How it was run: as §1

[5] = test system: field poppy (Papaver rhoeas)
How it was run: as §1

[6] = test system: oat, wild (wild oat, Avena fatua)
How it was run: as §1

[7] = test system: buckwheat, wild (wild buckwheat, Polygonum convolvulus); conditions: for Buckwheat, Wild plant response rating / Plant response rating (scale of 0 to 100), Buckwheat, Wild: 31 g ai/ha
How it was run: as §1

[8] = test system: galium (catchweed bedstraw, Galium aparine)
How it was run: as §1

[9] = test system: canarygrass (Phalaris minor)
How it was run: as §1

[10] = test system: wheat, spring (spring wheat, Triticum aestivum)
How it was run: as §1

[11] = test system: barley, spring (spring barley, Hordeum vulgare)
How it was run: as §1

[12] = test system: foxtail, green (green foxtail, Setaria viridis)
How it was run: as §1

[13] = test system: pigweed (Amaranthus retroflexus)
How it was run: as §1

[14] = Postemergence, 31 g ai/ha, scale 0 to 100 (0 no effect, 100 complete control)
[15] = Postemergence, 125 g ai/ha, visual rating on scale 0 (no effect) to 100 (complete control), 14 to 21 d
[16] = Postemergence, 250 g ai/ha, scale 0 to 100 (0 no effect, 100 complete control)
[17] = Preemergence, 62 g ai/ha, scale 0 to 100 (0 no effect, 100 complete control)
[18] = Preemergence, 125 g ai/ha, scale 0 to 100 (0 no effect, 100 complete control)
[19] = Preemergence, 250 g ai/ha, scale 0 to 100, 0 no effect, 100 complete control
[20] = postemergence, 62 g ai/ha, scale 0 to 100, 0 no effect, 100 complete control
[21] = Postemergence, scale 0 to 100 (0 no effect, 100 complete control)

Cc1nn(C)c(=O)c(-c2ccc(F)c3ccccc23)c1O [Compound 41]
60: Barley, Spring plant response rating [11, 19]
100: Plant response rating, Mustard, Wild [4, 15] | Plant response rating, Mustard, Wild [4, 16] | Plant response rating, Mustard, Wild [4, 20] | Plant response rating, Buckwheat, Wild [7, 16] | Galium plant response rating [8, 14] | Plant response rating, Galium [8, 15] | Plant response rating, Galium [8, 16] | Plant response rating, Galium [8, 19] | Plant response rating, Galium [8, 20] | Plant response rating, Foxtail, Green [12, 18] | Plant response rating, Foxtail, Green [12, 19] | Plant response rating, Pigweed [13, 18] | Plant response rating, Pigweed [13, 19]
70: Plant response rating (scale of 0 to 100), Bluegrass ([1]; Preemergence, 31 g ai/ha) | Plant response rating (scale of 0 to 100), Mustard, Wild ([4]; Preemergence, 31 g ai/ha) | Oat, Wild plant response rating [6, 14] | Plant response rating, Canarygrass [9, 20] | Plant response rating, Wheat, Spring [10, 18]
55: Plant response rating, Oilseed Rape [3, 16] | Field Poppy plant response rating [5, 14] | Plant response rating, Buckwheat, Wild [7, 17] | Canarygrass plant response rating [9, 14] | Plant response rating, Wheat, Spring [10, 17] | Plant response rating, Foxtail, Green [12, 20]
10: Plant response rating, Barley, Spring [11, 15]
80: Plant response rating, Bluegrass [1, 18] | Plant response rating, Field Poppy [5, 20] | Plant response rating, Oat, Wild [6, 20] | Buckwheat, Wild plant response rating [7, 21] | Plant response rating, Canarygrass [9, 15] | Plant response rating, Canarygrass [9, 16] | Plant response rating, Foxtail, Green [12, 17] | Plant response rating, Pigweed [13, 15] | Plant response rating, Pigweed [13, 20]
30: Plant response rating, Bluegrass [1, 20] | Barley, Winter plant response rating [2, 19] | Plant response rating, Wheat, Spring [10, 15] | Plant response rating, Barley, Spring [11, 18]
90: Bluegrass plant response rating [1, 19] | Mustard, Wild plant response rating [4, 14] | Plant response rating, Mustard, Wild [4, 17] | Plant response rating, Oat, Wild [6, 17] | Plant response rating, Oat, Wild [6, 18] | Plant response rating, Buckwheat, Wild [7, 20] | Plant response rating (scale of 0 to 100), Canarygrass ([9]; Preemergence, 31 g ai/ha) | Plant response rating, Canarygrass [9, 17] | Plant response rating, Canarygrass [9, 18]
25: Plant response rating, Bluegrass [1, 15] | Plant response rating, Barley, Winter [2, 18] | Plant response rating, Oilseed Rape [3, 15] | Plant response rating, Oilseed Rape [3, 18] | Plant response rating (scale of 0 to 100), Pigweed ([13]; Preemergence, 31 g ai/ha)
85: Plant response rating, Oat, Wild [6, 15] | Plant response rating, Oat, Wild [6, 16] | Plant response rating (scale of 0 to 100), Oat, Wild ([6]; Preemergence, 31 g ai/ha) | Plant response rating, Galium [8, 17] | Plant response rating, Wheat, Spring [10, 19] | Plant response rating, Pigweed [13, 16]
45: Foxtail, Green plant response rating [12, 14] | Plant response rating (scale of 0 to 100), Foxtail, Green ([12]; Preemergence, 31 g ai/ha)
5: Plant response rating, Barley, Winter [2, 15] | Plant response rating, Barley, Winter [2, 20] | Plant response rating, Oilseed Rape [3, 17] | Plant response rating, Oilseed Rape [3, 20] | Plant response rating, Barley, Spring [11, 20]
65: Plant response rating, Buckwheat, Wild [7, 18] | Plant response rating, Foxtail, Green [12, 16]
50: Plant response rating, Foxtail, Green [12, 15]
40: Plant response rating, Wheat, Spring [10, 16] | Plant response rating (scale of 0 to 100), Wheat, Spring ([10]; Preemergence, 31 g ai/ha)
35: Plant response rating, Bluegrass [1, 16] | Plant response rating, Barley, Winter [2, 16] | Plant response rating (scale of 0 to 100), Buckwheat, Wild ([7]; Preemergence)
75: Plant response rating, Bluegrass [1, 17] | Plant response rating, Field Poppy [5, 15] | Plant response rating, Buckwheat, Wild [7, 19] | Plant response rating (scale of 0 to 100), Galium ([8]; Preemergence, 31 g ai/ha) | Pigweed plant response rating [13, 14] | Plant response rating, Pigweed [13, 17]
20: Plant response rating, Barley, Winter [2, 17] | Plant response rating, Wheat, Spring [10, 20] | Plant response rating, Barley, Spring [11, 16]
0: Plant response rating, Barley, Winter [2, 14] | Plant response rating (scale of 0 to 100), Barley, Winter ([2]; Preemergence, 31 g ai/ha) | Oilseed Rape plant response rating [3, 14] | Plant response rating (scale of 0 to 100), Oilseed Rape ([3]; Preemergence, 31 g ai/ha) | Plant response rating, Barley, Spring [11, 14] | Plant response rating (scale of 0 to 100), Barley, Spring ([11]; Preemergence, 31 g ai/ha) | Plant response rating, Barley, Spring [11, 17]
15: Bluegrass plant response rating [1, 14] | Plant response rating, Oilseed Rape [3, 19] | Wheat, Spring plant response rating [10, 14]
95: Plant response rating, Mustard, Wild [4, 18] | Plant response rating, Mustard, Wild [4, 19] | Plant response rating, Field Poppy [5, 16] | Plant response rating (scale of 0 to 100), Field Poppy ([5]; Preemergence, 31 g ai/ha) | Plant response rating, Field Poppy [5, 17] | Plant response rating, Field Poppy [5, 19] | Plant response rating, Oat, Wild [6, 19] | Plant response rating, Buckwheat, Wild [7, 15] | Plant response rating, Galium [8, 18] | Plant response rating, Canarygrass [9, 19]

Cc1nn(C)c(=O)c(-c2cccc3ccc(Br)cc23)c1O [Compound 126]
30: Plant response rating, Bluegrass [1, 18] | Plant response rating (scale of 0 to 100), Field Poppy ([5]; Preemergence, 31 g ai/ha)
20: Canarygrass plant response rating [9, 14] | Plant response rating (scale of 0 to 100), Foxtail, Green ([12]; Preemergence, 31 g ai/ha) | Plant response rating (scale of 0 to 100), Foxtail, Green ([12]; Preemergence, 62 g ai/ha)
15: Plant response rating, Bluegrass [1, 15] | Plant response rating, Bluegrass [1, 16] | Plant response rating, Oilseed Rape [3, 18] | Plant response rating (scale of 0 to 100), Canarygrass ([9]; Preemergence, 31 g ai/ha)
10: Plant response rating, Bluegrass [1, 20] | Plant response rating, Buckwheat, Wild [7, 18] | Plant response rating, Barley, Spring [11, 15] | Plant response rating, Barley, Spring [11, 16] | Foxtail, Green plant response rating [12, 14] | Plant response rating, Foxtail, Green [12, 20]
98: Plant response rating, Mustard, Wild [4, 19] | Plant response rating, Galium [8, 19] | Pigweed plant response rating [13, 14] | Plant response rating, Pigweed [13, 15] | Plant response rating, Pigweed [13, 16] | Plant response rating (scale of 0 to 100), Pigweed ([13]; Preemergence, 31 g ai/ha)
100: Plant response rating, Mustard, Wild [4, 16] | Plant response rating, Buckwheat, Wild [7, 15] | Plant response rating, Buckwheat, Wild [7, 16] | Plant response rating, Buckwheat, Wild [7, 20] | Plant response rating, Galium [8, 15] | Plant response rating, Galium [8, 16] | Plant response rating, Galium [8, 20] | Plant response rating (scale of 0 to 100), Pigweed ([13]; Preemergence, 62 g ai/ha) | Plant response rating, Pigweed [13, 18] | Plant response rating, Pigweed [13, 19] | Plant response rating, Pigweed [13, 20]
5: Plant response rating (scale of 0 to 100), Bluegrass ([1]; Preemergence, 31 g ai/ha) | Plant response rating, Bluegrass [1, 17] | Plant response rating, Barley, Winter [2, 19] | Plant response rating, Barley, Winter [2, 20] | Plant response rating, Wheat, Spring [10, 16]
25: Field Poppy plant response rating [5, 14] | Plant response rating, Buckwheat, Wild [7, 19] | Plant response rating, Foxtail, Green [12, 15] | Plant response rating, Foxtail, Green [12, 16] | Plant response rating, Foxtail, Green [12, 18]
50: Plant response rating (scale of 0 to 100), Galium ([8]; Preemergence, 31 g ai/ha) | Plant response rating (scale of 0 to 100), Canarygrass ([9]; Preemergence, 62 g ai/ha)
75: Plant response rating, Oilseed Rape [3, 15] | Plant response rating, Field Poppy [5, 15] | Plant response rating, Canarygrass [9, 16]
40: Plant response rating, Bluegrass [1, 19]
90: Plant response rating, Oilseed Rape [3, 19] | Plant response rating, Mustard, Wild [4, 15] | Plant response rating, Field Poppy [5, 18] | Plant response rating, Oat, Wild [6, 16] | Plant response rating, Oat, Wild [6, 19] | Galium plant response rating [8, 14] | Plant response rating, Canarygrass [9, 19]
0: Bluegrass plant response rating [1, 14] | Barley, Winter plant response rating [2, 14] | Plant response rating, Barley, Winter [2, 15] | Plant response rating, Barley, Winter [2, 16] | Plant response rating (scale of 0 to 100), Barley, Winter ([2]; Preemergence, 31 g ai/ha) | Plant response rating, Barley, Winter [2, 17] | Plant response rating, Barley, Winter [2, 18] | Plant response rating (scale of 0 to 100), Oilseed Rape ([3]; Preemergence, 31 g ai/ha) | Plant response rating (scale of 0 to 100), Oilseed Rape ([3]; Preemergence, 62 g ai/ha) | Plant response rating (scale of 0 to 100), Buckwheat, Wild ([7]; Preemergence) | Plant response rating, Buckwheat, Wild [7, 17] | Wheat, Spring plant response rating [10, 14] | Plant response rating, Wheat, Spring [10, 15] | Plant response rating (scale of 0 to 100), Wheat, Spring ([10]; Preemergence, 31 g ai/ha) | Plant response rating (scale of 0 to 100), Wheat, Spring ([10]; Preemergence, 62 g ai/ha) | Plant response rating, Wheat, Spring [10, 18] | Plant response rating, Wheat, Spring [10, 19] | Plant response rating, Wheat, Spring [10, 20] | Barley, Spring plant response rating [11, 14] | Plant response rating (scale of 0 to 100), Barley, Spring ([11]; Preemergence, 31 g ai/ha) | Plant response rating, Barley, Spring [11, 17] | Plant response rating, Barley, Spring [11, 18] | Plant response rating, Barley, Spring [11, 19] | Plant response rating, Barley, Spring [11, 20]
95: Plant response rating, Field Poppy [5, 19]
45: Plant response rating (scale of 0 to 100), Field Poppy ([5]; Preemergence, 62 g ai/ha) | Plant response rating, Canarygrass [9, 15] | Plant response rating, Foxtail, Green [12, 19]
80: Mustard, Wild plant response rating [4, 14] | Plant response rating, Mustard, Wild [4, 20] | Plant response rating, Oat, Wild [6, 15] | Plant response rating, Oat, Wild [6, 18] | Plant response rating, Canarygrass [9, 18]
85: Plant response rating, Oilseed Rape [3, 16] | Plant response rating, Field Poppy [5, 16] | Plant response rating, Galium [8, 18]
65: Plant response rating, Oilseed Rape [3, 20] | Plant response rating (scale of 0 to 100), Oat, Wild ([6]; Preemergence, 31 g ai/ha)
70: Plant response rating (scale of 0 to 100), Mustard, Wild ([4]; Preemergence, 62 g ai/ha) | Plant response rating, Mustard, Wild [4, 18] | Plant response rating (scale of 0 to 100), Oat, Wild ([6]; Preemergence, 62 g ai/ha) | Plant response rating, Oat, Wild [6, 20] | Buckwheat, Wild plant response rating [7, 21] | Plant response rating (scale of 0 to 100), Galium ([8]; Preemergence, 62 g ai/ha)
60: Oilseed Rape plant response rating [3, 14] | Plant response rating (scale of 0 to 100), Mustard, Wild ([4]; Preemergence, 31 g ai/ha) | Oat, Wild plant response rating [6, 14]
35: Plant response rating, Canarygrass [9, 20]
55: Plant response rating, Field Poppy [5, 20]
